# Measurements: US6262108A, “Medicinal use of cromoglycic acid compounds” (Kyoto Pharmaceutical Industries, Ltd., priority 1997, dated 2001)
# “Also recorded” adds a separate entry of the source.
# How the values were obtained:
# [1] = tested on: type I and type IV allergic dermatitis; assay: Type I and Type IV allergic dermatitis (repeat application of DNFB) auricle swelling; assay type: in vivo, male BALB/c mice; settings: 100 mg/kg orally twice a day; for Increase in thickness of auricle by repeat application of 0.2% DNFB solution: mean ± standard error
# Description: According to the method of Nagai et al., (Naoki Inagaki and Hiroichi Nagai, The 8th Spring Meeting of Japanese Society of Allergology, 1996), the inhibitory action of diethyl acetoacetylcromoglycate on type I and type IV allergic dermatitis was examined.
# According to this method, a type I allergic reaction is induced in addition to a type IV allergic reaction due to repeat contact sensitization with antigen. […] The method is described in detail in the following.
# Male 6-week-old BALB/c mice (Japan SLC, Inc.) were divided into two groups of control group and administration group including 10 mice each. A 0.5% methylcellulose solution (10 ml/kg) was forcefully administered orally to the control group and diethyl acetoacetylcromoglycate (100 mg/kg) was forcefully administered orally to the administration group twice a day for 36 days for each group. The thickness of both auricles of each mouse was measured with a dial thickness gauge (Mitutoyo Co.) under ether anesthesia before initial administration on day 1 after administration. After the initial administration on day 8 of the administration, the thickness of both auricles of each mouse was measured with a dial thickness gauge under ether anesthesia. 0.2% Dinitrofluorobenzene (DNFB) dissolved in acetone-olive oil (mixing ratio 3:1) was applied by 25 μl to the left and right auricles. After 24 hours from the application, the thickness of both auricles of each mouse was measured under ether anesthesia with a dial thickness gauge. Thereafter, similar manipulation was repeated 4 times at a week interval. At the 5th application, the thickness of both auricles was also measured at 1 and 4 hours after the application.
# Changes in the thickness of both auricles of each mouse were calculated from the measurement values of the thickness of the both auricles before the initial application. The average of changes in the thickness of the left and right auricles of each mouse was taken as the variation of the mouse.
# [2] = tested on: anti-bovine type II collagen antibody; assay: Anti-bovine type II collagen antibody titer in blood (ELISA) in collagen-induced arthritis mice; assay type: in vivo, male DBA/1J mice; settings: 100 mg/kg/day orally
# Description: According to the method of Courtenay et al. (Courtenay, J. S. et al.: Immunization against heterologous type II collagen induces arthritis in mice. Nature, 283:666, 1980), male DBA/1J mice (CHARLES RIVER JAPAN INC.) were sensitized with bovine type II collagen to induce collagen-induced arthritis (rheumatoid arthritis). After the onset of arthritis, diethyl acetoacetylcromoglycate was orally administered and its inhibitory effect was examined. The method is detailed in the following.
# Male DBA/1J mice (8-week-old) were pre-bred for one week and divided into the following 3 groups based on body weight (8-10 per group). […]
# At day 42 after the initiation of treatment, blood was taken from carotid artery and the mice were exsanguinated to death under ether anesthesia. The anti-bovine type II collagen antibody titer in blood was determined by the ELISA method according to the method of Stuart et al. (Stuart, J. M. et al.: Nature and specificity of the immune response to collagen in type II collagen-induced arthritis in mice, J. Clin. Invest., 69:673-683, 1982).
structure (smiles),measurement,setting,value
"CCOC(=O)c1cc(=O)c2c(OCC(COc3cccc4oc(C(=O)OCC)cc(=O)c34)OC(=O)CC(C)=O)cccc2o1 [Example 1, Diethyl Acetoacetylcromoglycate]",Increase in thickness of auricle by repeat application of 0.2% DNFB solution,"[1]; 1 hr after 5th application (type I allergic reaction), control 0.098 ± 0.012, p < 0.05",0.058 ± 0.007 mm
same,Increase in thickness of auricle by repeat application of 0.2% DNFB solution,"[1]; 4 hr after 5th application, control 0.063 ± 0.007",0.056 ± 0.007 mm
same,Increase in thickness of auricle by repeat application of 0.2% DNFB solution,"[1]; 24 hr after 1st application, control 0.011 ± 0.002",0.012 ± 0.002 mm
same,Increase in thickness of auricle by repeat application of 0.2% DNFB solution,"[1]; 24 hr after 2nd application, control 0.048 ± 0.004, p < 0.05",0.037 ± 0.003 mm
same,Increase in thickness of auricle by repeat application of 0.2% DNFB solution,"[1]; 24 hr after 3rd application, control 0.092 ± 0.009, p < 0.01",0.061 ± 0.005 mm
same,Increase in thickness of auricle by repeat application of 0.2% DNFB solution,"[1]; 24 hr after 4th application, control 0.141 ± 0.012, p < 0.01",0.095 ± 0.009 mm
same,Increase in thickness of auricle by repeat application of 0.2% DNFB solution,"[1]; 24 hr after 5th application, control 0.182 ± 0.015, p < 0.01",0.122 ± 0.010 mm
same,effect on swelling of the auricle (in words),"[1]; after the second application of DNFB, t-test with control group",significant inhibitory action on the swelling of the auricle after the second application
same,Increase in thickness of auricle by repeat application of 0.2% DNFB solution,"[1]; before 1st application, control 0.008 ± 0.003",0.008 ± 0.002 mm
same,Increase in thickness of auricle by repeat application of 0.2% DNFB solution,"[1]; before 2nd application, control 0.033 ± 0.003",0.029 ± 0.003 mm
same,Increase in thickness of auricle by repeat application of 0.2% DNFB solution,"[1]; before 3rd application, control 0.042 ± 0.005",0.035 ± 0.003 mm
same,Increase in thickness of auricle by repeat application of 0.2% DNFB solution,"[1]; before 4th application, control 0.049 ± 0.004",0.040 ± 0.005 mm
same,Increase in thickness of auricle by repeat application of 0.2% DNFB solution,"[1]; before 5th application, control 0.059 ± 0.006",0.048 ± 0.005 mm
same,"effect on swelling of the auricle, type I allergic reaction (in words)",[1]; one hour after the fifth application of DNFB,significant inhibitory action on the swelling of the auricle
same,effect on anti-bovine type II collagen antibody titer in blood (in words),"[2]; day 42 after initiation of treatment, ANOVA with control group",significant decrease in anti-bovine type II collagen antibody titer in blood; also recorded: inhibition of an increase in the anti-bovine collagen antibody titer in blood
same,Anti-bovine type II collagen antibody titer in blood,"[2]; day 83 after initial injection of collagen (day 42 after starting treatment), mean ± standard error (n = 8-10), control 0.301 ± 0.005, p < 0.01",0.203 ± 0.010
